Where two headings read alike, the source gives them in different places. Marks after values point to notes of the source that are not given here.
Experiments:
tyrosine kinase A (TrkA) = target: T1, tyrosine kinase A (TrkA) (Mus musculus, UniProt Q3UFB7); experiment: Tyrosine kinase A phosphorylation in HT-22 cells (Western blot); assay type: cell-based; settings: first minute of exposure
T1 construct: phosphorylation of tyrosine kinase A in cultured hippocampal neuronal cell line HT22; endogenous in cells; host or cells: HT-22 hippocampal neuronal cell line
Method: (§1) The amount of Hsp70, Hsp32 and pTrkA was determined in the cytoplasmic fraction of HT-22 neuronal cells. For heat shock proteins, a test compound was added to the culture 24 hours prior to testing, before the cells were washed off the culture liquid with PBS. For pTrkA, a test compound was added to the culture immediately prior to the cell lysis just for 1 or 2 min, before the cells were washed off the culture liquid with PBS. Then the cells were mixed with the lysis buffer (50 mM Tris-HCl, 5 mM EDTA, 1 mM DTT, 1% Triton X-100, pH 7.5) at 4° C. and lysed for 5 min, then scraped off, transferred into a 1.5 ml centrifuge tube and centrifuged at 13000 rpm and 4° C. for 10 min. The supernatant containing cytosolic proteins was assayed by electrophoresis and immunoblotting. Proteins were separated on a 10% polyacrylamide gel (PAAG) and transferred from PAAG onto a PVDF membrane by electroelution for 45 min. Western blots were pre-incubated for 1 h in a TBST solution containing 1% Tween-20 and supplemented with 5% (w/v) skim milk. Western blots were then incubated with the primary polyclonal anti-Hsp32 antibody diluted 1:1000 or primary monoclonal anti-Hsp70 antibody diluted 1:1000 or primary monoclonal anti-phosphorylated tyrosine kinase A antibody diluted 1:1000 for 1 hour. Then the blots were washed and incubated with a secondary antibody conjugated to horseradish peroxidase (diluted 1:2000) for 1 hour. The detection of Hsp70, Hsp32 and pTrkA was carried out by the ECL reaction on a Kodak film.

rats [1] = settings: 1.0 mg/kg i.p. 24 h prior to apomorphine (pretreatment); FIG. 2.10
Method: The control group was treated with distilled water according to the same regimen.

[2] = test system: rats with photothrombosis of the prefrontal cortex
Method: Male outbred rats weighing 180-200 g were used.
Experimental stages: surgery for photothrombosis, evaluation of motor activity (before and at 9 days after photothrombosis); PAR conditioning and the retention test at 9 days after photothrombosis; animal sacrifice, excision and fixation of the brain; morphologic examination and ischemic zone volume calculation.
(§2) The test substance was administered intraperitoneally at a dose of 1 mg/kg using the following regimen: at 1 h after surgery, at 24 h after the first administration, at 4 days and 6 days after the first administration.
PAR conditioning was performed according to the following protocol: The latency time (LT) was defined as the time between the start of testing and the moment of crossing the hole dividing the light and dark compartments. On day 1 the rat was placed in the light compartment (a 100 W light bulb) and, having explored it for a certain time (LT to learning), crossed into the dark compartment. Thereafter the door leading to this compartment was closed, and the rat was allowed to stay there for 5 min. One hour later the procedure was repeated by taking the rat out of the dark compartment. On the next day this procedure was repeated twice with a 1 h interval. During the second visit by the rat to the dark compartment the door was closed and electric current was passed through the metal bars in the floor (1.3 mA, 50 Hz, 5 sec). The PAR conditioning was considered established when the LT was at least 300 sec. Animals with lower LT values were excluded from the experiments.
(§3) A bilateral focal ischemic infarction of the prefrontal cortex of the rat brain (the Fr1 and Fr2 fields according to the atlas of Paxinos and Watson, 1986) was produced by the photoinduced thrombosis method (Watson et al., 1985). Animals were anesthetized with chloral hydrate (300 mg/kg i.p.). The photosensitive dye Bengal red (Sigma Chemical Co.) was injected into the jugular vein (3% solution, 40 mg/kg). The animal's head was clamped in the stereotaxis device, and the periosteum was removed after a longitudinal incision of the skin.
A light guide (the output light beam diameter 3 mm) was placed at a distance of 1 mm from the skull surface using the following coordinates: 2.00 mm rostral of the bregma and 2.00 mm lateral of the sagittal suture. Cold light illumination (a xenon lamp source, 25 V, 250 W) was carried out for 15 min at either side. Sham-operated animals were subjected to the same procedure except for the Bengal red injection. To assess their functional status, the animals were evaluated for their motor activity (MA) in a RODEO-1 automatic unit with an observation time of 5 min. The MA was analyzed before and at 9 days after the photothrombosis of the prefrontal cortex.

[3] = test system: rats with ischemic cerebral infarction; settings: 7 days after surgery; 1 mg/kg i.p. x3
rats [4] = test system: rats
Method: The experiments were conducted on white male outbred rats weighing 250-280 g. Haloperidol (1.0 mg/kg i.p.), a D1/D2 dopamine receptor blocker, was used to induce catalepsy. The intensity of catalepsy was assessed by measuring the time during which the animal maintained an assumed posture. The measurements were performed 60 minutes after the haloperidol injection. The test compound was administered intraperitoneally at selected doses (0.01, 0.1, 1.0 and 5.0 mg/kg) 24 hours prior to haloperidol. Control animals were treated with an equivalent volume of distilled water. Statistical data treatment was carried out using the exact Fisher test.

Hsp32 = experiment: Western blot of Hsp32 in HT-22 cells; assay type: cell-based, mouse; settings: 24 h after addition; GK-1, GK-2 10^−8 and 10^−5 M; GK-3 10^−6 M; GK-4 10^−7 M; GK-5 10^−6 M
Method: as §1

Hsp70 = experiment: Western blot of Hsp70 in HT-22 cells; assay type: cell-based, mouse; settings: 24 h after addition; GK-1, GK-2 10^−8 and 10^−5 M; GK-3 10^−6 M; GK-4 10^−7 M; GK-5 10^−6 M
Method: as §1

[5] = test system: rats with photothrombosis of the prefrontal cortex; settings: 1 mg/kg i.p.
Method: as §2, §3
A light guide (the output light beam diameter 3 mm) was placed at a distance of 1 mm from the skull surface using the following coordinates: 2.00 mm rostral of the bregma and 2.00 mm lateral of the sagittal suture. Cold light illumination (a xenon lamp source, 25 V, 250 W) was carried out for 15 min at either side. […] To assess their functional status, the animals were evaluated for their motor activity (MA) in a RODEO-1 automatic unit with an observation time of 5 min. The MA was analyzed before and at 9 days after the photothrombosis of the prefrontal cortex.

T1 sequence (Q3UFB7 34-799): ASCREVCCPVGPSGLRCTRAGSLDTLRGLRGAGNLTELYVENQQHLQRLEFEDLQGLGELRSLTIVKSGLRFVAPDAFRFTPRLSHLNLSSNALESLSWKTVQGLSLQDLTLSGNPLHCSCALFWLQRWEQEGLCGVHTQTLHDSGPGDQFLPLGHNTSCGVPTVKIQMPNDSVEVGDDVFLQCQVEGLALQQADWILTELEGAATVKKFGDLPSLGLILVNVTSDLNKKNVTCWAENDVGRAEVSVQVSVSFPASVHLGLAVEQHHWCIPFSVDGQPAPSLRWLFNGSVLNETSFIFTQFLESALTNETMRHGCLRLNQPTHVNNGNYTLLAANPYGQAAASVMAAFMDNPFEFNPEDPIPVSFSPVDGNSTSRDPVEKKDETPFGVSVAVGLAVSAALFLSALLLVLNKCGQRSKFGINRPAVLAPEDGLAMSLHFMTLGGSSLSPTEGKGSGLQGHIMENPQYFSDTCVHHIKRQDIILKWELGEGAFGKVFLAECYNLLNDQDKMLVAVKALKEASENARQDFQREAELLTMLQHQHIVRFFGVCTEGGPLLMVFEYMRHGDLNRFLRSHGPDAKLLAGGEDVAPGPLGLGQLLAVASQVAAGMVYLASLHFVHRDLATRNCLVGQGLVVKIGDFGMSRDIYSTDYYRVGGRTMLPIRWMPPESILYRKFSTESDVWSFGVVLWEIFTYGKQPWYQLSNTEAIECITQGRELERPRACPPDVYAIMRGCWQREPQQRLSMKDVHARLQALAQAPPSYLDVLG

Structure (SMILES): NCCCC[C@H](NC(=O)[C@H](CCC(=O)O)NC(=O)CCC(=O)O)C(=O)NCCCCCCNC(=O)[C@H](CCCCN)NC(=O)[C@H](CCC(=O)O)NC(=O)CCC(=O)O [GK-2, bis-(N-monosuccinyl-glutamyl-lysine) hexamethylenediamide]
- level of phosphorylated tyrosine kinase A (tyrosine kinase A (TrkA)): increased
- intensity of apomorphine-induced oral stereotypy (rats [1]): enhanced the intensity
- retention of the PAR ([2]; 1 mg/kg i.p.): 100%
- latency time of PAR, individual rats ([2]; 1 mg/kg i.p. at 1 h, 24 h, 4 and 6 days, at 8 days after photothrombosis, saline 20-105, sham 300): 300 s
- latency time of PAR, group mean ([2]; 1 mg/kg i.p., n = 9, saline 59.2, sham 300): 300 s
- latency time of PAR ([2]; 1 mg/kg i.p., photothrombosis alone 59.2 sec): at least 300 sec
- reduction in use of the affected limb and simultaneous use of 2 forelimbs [3]: much less pronounced
- Intensity of catalepsy (% of control) (rats [4]; 0.01 mg/kg i.p. 24 h prior to haloperidol 1.0 mg/kg i.p., measured 60 min after haloperidol): 14* % of control
- Intensity of catalepsy (% of control) (rats [4]; 0.1 mg/kg i.p. 24 h prior to haloperidol): 98 % of control
- Intensity of catalepsy (% of control) (rats [4]; 1.0 mg/kg i.p. 24 h prior to haloperidol): 25* % of control
- Intensity of catalepsy (% of control) (rats [4]; 5.0 mg/kg i.p. 24 h prior to haloperidol): 13* % of control
- amount of Hsp32 (Hsp32): increase
- amount of Hsp70 (Hsp70): increase
- lesion volume (left and right hemispheres, per rat, mean) ([5]; FIG. 2.4): reduced
- protection effectiveness rate (PER) ([5]; PER=(V0−Vs)/V0×100%): 61%
